Assay results from article PMC9695821, “Synthesis and Evaluation of NF-κB Inhibitory Activity of Mollugin Derivatives” (Molecules, 2022).
pIC50: −log10 of the molar value. Marks after values point to notes of the source that are not given here.

Key:
[1] = test system: NF-κB transcriptional activity; assay: NF-κB luciferase reporter assay in HeLa cells; type: cell-based; settings: for pIC50: Homo sapiens, NF-κB luciferase reporter, 24 h treatment, hypoxic conditions, mean, n = 3
Description: A NF-κB-Luc plasmid for NF-κB luciferase reporter assay was obtained from Strategene (La Jolla, CA, USA). Transfections were performed as previously described. NF-κB-dependent luciferase activity was measured using the Dual-luciferase reporter assay system. Briefly, HeLa cells (1 × 10^5 cells/well) were seeded in a 96-well plate for 24 h. The cells were then transfected with plasmids for each well and then incubated for a transfection period of 24 h. […] Luciferase activity was determined in MicroLumat plus luminometer (EG&G Berthold, Bad Wildbad, Germany) by injecting 100 µL of assay buffer containing luciferin and measuring light emission for 10 s. Co-transfection with pRL-CMV (Promega, Madison, WI, USA), which expresses Renilla luciferase, was performed to enable normalization of data for transfection efficiency.

[2] = MTT cytotoxicity / cell viability assay; type: cell-based; settings: human; MTT assay, HeLa cells, 24 h treatment, normoxic conditions; mean, n = 3
Description: (§1) HeLa cells were inoculated and cultured in 96-well plates. After the cells adhered to the wall, the prepared target compounds with different concentrations were added to all plates for 24 h and then cultured in 5 mg/mL MTT solution for 4 h. The culture solution in the holes was sucked out, and DMSO reagent was added. After the crystallization was fully dissolved, the absorbance at 570 nm was measured by Multiskan GO.

[3] = test system: HeLa cells; assay: MTT cytotoxicity / cell viability assay; type: cell-based; settings: for IC50 Cytotoxicity: MTT assay, 24 h treatment, normoxic conditions, mean, n = 3
Description: as §1

[4] = test system: xylene-induced ear edema; assay: Xylene-induced ear edema test, initial screening (i.p.); type: in vivo; settings: mice; for inhibition in vivo at 100 mg/kg: Mus musculus, ip, 0.5 h, n = 6, read-out: Inhibition Rate; for Edema Mean ± SD: 100 mg/kg, n = 6
Description: In vivo inhibition test of xylene induced ear edema in mice was performed to evaluate its anti-inflammatory activity.
In the initial screening, mice (male) were randomly divided into experimental group, positive control drug ibuprofen and Mesalazine group, and blank group. All target compounds were dissolved in dimethyl sulfoxide, and corresponding drugs were intraperitoneally injected into experimental group, positive control group and blank group, respectively. Mice were treated with 100 mg/kg, 0.1 mL/20 g body weight, and control mice received only DMSO (0.1 mL/20 g body weight). After 30 min, 20 μL of xy-lene was evenly applied on both sides of the right ear of the mice. After 30 min of xy-lene was applied, the mice were sacrificed by cutting off their necks. Then the left and right ears of the mice were drilled with a hole punch with a diameter of 7 mm, respec-tively, to obtain two round ear pieces. The degree of swelling (right ear mass–left ear mass) was calculated for each sample, and the swelling inhibition rate of each drug was calculated using the following formula. The inhibition rate of swelling degree (%) = (mean ear swelling degree of mice in blank group […] mean ear swelling degree of mice in target compound group)/mean ear swelling degree of mice in blank group × 100%. The data were processed by GraphPadPrism 5 and expressed as mean data ± SEM. One-way ANOVA method was used for statistical analysis of relevant data. A value of p < 0.05 in the chart indicates significant and statistically significant data dif-ference.

[5] = test system: xylene-induced ear edema; assay: Xylene-induced ear edema test, deep screening (oral); type: in vivo; settings: mice
Description: In the deep screening, mice were divided into target compound group, positive control group (ibuprofen), and blank group (8 male mice in each group). Target com-pound and ibuprofen were dissolved in sodium carboxymethyl cellulose aqueous solu-tion (sodium carboxymethyl cellulose to water, mass ratio 1:1000); the blank group was sodium carboxymethyl cellulose aqueous solution (sodium carboxymethyl cellu-lose to water, mass ratio 1:1000). The anti-inflammatory activities of each compound in the target compound group, positive control group, and blank group were measured at 1, 2, 3, 4, 6, 9, 12 and 24 h after taking the drug. The experimental operation and calculation method are the same as the initial screening part.

[6] = test system: p65; assay: Western blot of nuclear extracts, TNF-α-induced p65; type: cell-based

SMILES | pIC50 [1] | melting point [°C] | IC50 at 24 h [2] [µM] | IC50 Cytotoxicity [3] | inhibition in vivo at 100 mg/kg [4] [%] | Edema Mean ± SD [4] [mg] | Inhibition ([5]; 100 mg/kg, time 1 h) [% ***] | Inhibition ([5]; 100 mg/kg, time 2 h) [% ***] | Inhibition ([5]; 100 mg/kg, time 3 h) [% ***] | Inhibition ([5]; 100 mg/kg, time 4 h) [% ***] | Inhibition ([5]; 100 mg/kg, time 9 h) [% ***] | Inhibition ([5]; 100 mg/kg, time 12 h) [% ***] | Inhibition ([5]; 100 mg/kg, time 24 h) [% ***] | Inhibition ([5]; dose series, 25 mg/kg, 6 h) [% **] | Inhibition ([5]; dose series, 50 mg/kg, 6 h) [% ***] | inhibition of NF-κB luciferase activity, dose dependence ([1]; Figure 2A) | cell viability ([3]; 30 µM, 24 h, Figure 2B) | TNF-α-induced expression of p65 ([6]; HeLa cells, 100 µM) | TNF-α-induced p65 phosphorylation ([6]; HeLa cells, 10, 30, 100 µM for 12 h, then 10 ng/mL TNF-α 30 min, nuclear extracts)
COC(=O)c1c2c(c3ccccc3c1OCC(=O)Nc1ccc(OC)cc1)OC(C)(C)C=C2 [Compound 4d, Methyl 6-(2-((4-methoxyphenyl)amino)-2-oxoethoxy)-2,2-dimethyl-2H-benzo [h] chromene-5-carboxylate] | 4.05 | 126 to 128 | > 100 | no significant cell toxicity | 61.9 | 2.5167 ± 0.6890 |  |  |  |  |  |  |  |  |  |  |  |  | 
COC(=O)c1c2c(c3ccccc3c1OCC(=O)Nc1ccc3ncccc3c1)OC(C)(C)C=C2 [Compound 6d, Methyl 2,2-dimethyl-6-(2-oxo-2-(quinolin-6-ylamino)ethoxy)-2H-benzo [h] Chromene-5-carboxylate] | 5.42 | 135 to 137 | > 100 | did not show any significant cytotoxicity | 76.8 |  | 25.76 | 33.84 | 41.92 | 52.53 | 37.63 | 31.82 | 25.25 | 41.92 | 46.32 | dose-dependent inhibition | did not adversely affect the cell viability | inhibited TNF-α-induced expression of p65 | significantly inhibited TNF-α-induced p65 phosphorylation in a dose-dependent manner
COC(=O)c1c2c(c3ccccc3c1OCCBr)OC(C)(C)C=C2 [Compound 8a, Methyl 6-(2-bromoethoxy)-2,2-dimethyl-2H-benzo [h] chromene-5-carboxylate] | < 4.00 | 110 to 112 | > 100 |  | 57.3 | 2.8167 ± 0.9370 |  |  |  |  |  |  |  |  |  |  |  |  | 
COC(=O)c1c2c(c3ccccc3c1OCCNc1ccccc1)OC(C)(C)C=C2 [Compound 8b, Methyl 2,2-dimethyl-6-(2-(phenylamino)ethoxy)-2H-benzo[h]chromene-5-carboxylate] | < 4.00 | 135 to 137 | > 100 |  | 76.5 | 1.5500 ± 0.3594 |  |  |  |  |  |  |  |  |  |  |  |  | 

Second part, led by results:

pIC50 [1] | melting point [°C] | SMILES | IC50 at 24 h [2] [µM] | IC50 Cytotoxicity [3] | inhibition in vivo at 100 mg/kg [4] [%] | Edema Mean ± SD [4] [mg] | Inhibition ([5]; 100 mg/kg, time 1 h) [% ***] | Inhibition ([5]; 100 mg/kg, time 2 h) [% ***] | Inhibition ([5]; 100 mg/kg, time 3 h) [% ***] | Inhibition ([5]; 100 mg/kg, time 4 h) [% ***] | Inhibition ([5]; 100 mg/kg, time 9 h) [% ***] | Inhibition ([5]; 100 mg/kg, time 12 h) [% ***] | Inhibition ([5]; 100 mg/kg, time 24 h) [% ***] | Inhibition ([5]; dose series, 25 mg/kg, 6 h) [% **] | Inhibition ([5]; dose series, 50 mg/kg, 6 h) [% ***] | inhibition of NF-κB luciferase activity, dose dependence ([1]; Figure 2A) | cell viability ([3]; 30 µM, 24 h, Figure 2B) | TNF-α-induced expression of p65 ([6]; HeLa cells, 100 µM) | TNF-α-induced p65 phosphorylation ([6]; HeLa cells, 10, 30, 100 µM for 12 h, then 10 ng/mL TNF-α 30 min, nuclear extracts)
4.26 | 120 to 122 | COC(=O)c1c2c(c3ccccc3c1OCC(=O)Nc1ccc(C)cc1)OC(C)(C)C=C2 [Compound 4e, Methyl 2,2-dimethyl-6-(2-oxo-2-(p-tolylamino)ethoxy)-2H-benzo [h] chromene-5-carboxylate] | > 100 | no significant cell toxicity | 41.4 | 3.8667 ± 1.2023 |  |  |  |  |  |  |  |  |  |  |  |  | 
4.73 | 132 to 134 | COC(=O)c1c2c(c3ccccc3c1OCC(=O)Nc1ccc(F)cc1)OC(C)(C)C=C2 [Compound 4f, Methyl 6-(2-((4-fluorophenyl)amino)-2-oxoethoxy)-2,2-dimethyl-2H-benzo [h] chromene-5-carboxylate] | > 100 | no significant cell toxicity | 83.1 | 1.1167 ± 0.2544 | 27.53 | 37.12 | 46.46 | 58.08 | 43.94 | 35.35 | 26.01 | 46.46 | 53.08 |  |  |  | 
4.64 | 115 to 117 | COC(=O)c1c2c(c3ccccc3c1OCC(=O)Nc1ccc(CC#N)cc1)OC(C)(C)C=C2 [Compound 4i, Methyl 6-(2-((4-(cyanomethyl)phenyl)amino)-2-oxoethoxy)-2,2-dimethyl-2H-benzo [h] chromene-5-carboxylate] | > 100 | no significant cell toxicity | 59.1 | 2.7000 ± 0.4619 |  |  |  |  |  |  |  |  |  |  |  |  | 
< 4.00 | 128 to 130 | COC(=O)c1c2c(c3ccccc3c1OCCNc1ccc(F)cc1)OC(C)(C)C=C2 [Compound 8c, Methyl6-(2-((4-fluorophenyl)amino)ethoxy)-2,2-dimethyl-2H-benzo [h] chromene-5-carboxylate] | > 100 |  | 63.9 | 2.3833 ± 0.7104 |  |  |  |  |  |  |  |  |  |  |  |  | 
